{"source": "paper PMC4076079", "about": "“Selective inhibitors of a PAF biosynthetic enzyme lysophosphatidylcholine acyltransferase 2” (Journal of Lipid Research, 2014)", "biological_target": "T1, hLPCAT2 (Homo sapiens, UniProt Q7L5N7)", "T1 construct": "expressed in transfected cells; host or cells: CHO-S-PAFR cells (microsomal fraction), with or without mcPAF stimulation", "T1 sequence (Q7L5N7 1-544)": "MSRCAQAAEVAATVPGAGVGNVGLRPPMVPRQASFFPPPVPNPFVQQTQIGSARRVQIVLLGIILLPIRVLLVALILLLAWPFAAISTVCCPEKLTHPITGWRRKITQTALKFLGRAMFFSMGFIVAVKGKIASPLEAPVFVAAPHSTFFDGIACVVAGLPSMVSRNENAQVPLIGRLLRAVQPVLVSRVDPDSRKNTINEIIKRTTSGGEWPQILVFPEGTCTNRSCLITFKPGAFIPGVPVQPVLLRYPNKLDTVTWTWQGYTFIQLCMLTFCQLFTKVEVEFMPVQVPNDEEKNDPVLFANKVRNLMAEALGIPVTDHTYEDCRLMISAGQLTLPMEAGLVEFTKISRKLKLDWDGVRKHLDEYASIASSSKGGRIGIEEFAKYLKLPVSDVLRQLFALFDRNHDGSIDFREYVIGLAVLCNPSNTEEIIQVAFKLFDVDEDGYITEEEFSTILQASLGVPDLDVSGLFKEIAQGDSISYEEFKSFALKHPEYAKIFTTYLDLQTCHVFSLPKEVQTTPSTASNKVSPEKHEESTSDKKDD", "assay": "kinetic analysis of lyso-PAFAT activity", "type": "biochemical", "details": "lyso-PAFAT activity of hLPCAT2, competitive with acetyl-CoA; Dixon plot, Prism; mcPAF-stimulated microsomes; read-out: Inhibition constant (apparent Ki value)", "protocol": "Microsomal protein fractions (0.5 μg) supplemented with the indicated compound concentrations were added to the reaction mixture containing 100 mM Tris-HCl (pH 7.4), 1 μM CaCl2, 0.015% Tween-20, and two substrates. For acetyltransferase activity, the substrates were 1 mM acetyl-CoA and 5 μM d4-lyso-PAF; for the acyltransferase activity of LPCAT1 or LPCAT2, the substrates were, respectively, palmitoyl-CoA and d31-16:0 LPC or arachidonoyl-CoA and d4-lyso-PAF (all 5 μM). Each lysophospholipid contained fatty acid at the sn-1 position. After incubation at 37°C for 5 min, the reactions were stopped by adding 300 μl methanol containing 17:0 LPC or 14:0/14:0 PC as an internal standard. Deuterium-labeled products were analyzed by LC-MS/MS (Waters, Milford, MA and Thermo Scientific, Waltham, MA).\nTo investigate the mechanism by which TSI-01 inhibited lyso-PAFAT activity of hLPCAT2, kinetic analysis was performed. CHO-S-PAFR cells overexpressing hLPCAT2 were stimulated with or without mcPAF for 30 s and analyzed for lyso-PAFAT activity in the microsomal fraction. […] Inhibition constant (apparent Ki value) of TSI-01 was also calculated as 30–40 nM using Prism software (Fig. 6D).\nFig. 6. Effects of TSI-01 on kinetics of LPCAT2 enzymatic activity. […]"}
{"smiles": "CC(C)OC(=O)c1ccc(N2C(=O)C(Cl)=C(Cl)C2=O)cc1", "note": "[TSI-01, propan-2-yl 4-(3,4-dichloro-2,5-dioxopyrrol-1-yl)benzoate]", "values": [{"measurement": "Ki", "result": "30 to 40", "unit": "nM"}]}
